Experimental data reported in publication PMC8811433 (The Journal of International Medical Research, 2022).

Target: Lysine-specific demethylase 1 (LSD1) (Homo sapiens, UniProt O60341)
Assay: in vitro LSD1 activity assay
Type: biochemical
Settings: read-out: % inhibition at 1000 nM

An inhibition at 1 µM of 78% was found for `C=C1C(=O)O[C@H]2[C@H]1[C@H](OC(=O)/C(C)=C/CO)CC(=C)[C@@H]1C=C[C@@](C)(O)[C@H]21` [eupalinilide B] in this work.
